Laboratory results reported in US6737383B1, “Herbicidal oxadiazolidines” (priority 1999, dated 2004).

How the values were obtained:
[1] = tested on: winter wheat; experiment: Test E winter wheat; format: in vivo, Triticum aestivum; conditions: Preemergence; for Wheat (winter) plant response rating (0 to 100 scale): Rate 250 g/ha
[2] = tested on: cocklebur; experiment: Test B pre/postemergence cocklebur; format: in vivo, Xanthium strumarium
Procedure, shortened: (§1)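 Test chemicals in a non-phytotoxic solvent mixture with surfactant were sprayed preemergence onto planted seeds and postemergence onto plants 2 to 18 cm tall (1- to 4-leaf stage). After twelve to sixteen days in a greenhouse, injury was visually rated against untreated controls from 0 (no effect) to 10 (complete control).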

[3] = tested on: green foxtail; experiment: Test E green foxtail; format: in vivo, Setaria viridis; conditions: Preemergence; for Green foxtail plant response rating (0 to 100 scale): Rate 250 g/ha
[4] = tested on: wild oat; experiment: Test B pre/postemergence wild oat; format: in vivo, Avena fatua
Procedure, shortened: as §1

[5] = tested on: winter wheat; experiment: Test E winter wheat; format: in vivo, Triticum aestivum; conditions: Postemergence; for Wheat (winter) plant response rating: Rate 250 g/ha
Procedure, shortened: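 Each compound, carried in a non-phytotoxic solvent blend including surfactant, was applied (postemergence: over the top of young plants at 1- to 4-leaf stage). Plants stayed in the greenhouse about 21 to 28 days before visual comparison with untreated controls.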

[6] = tested on: Italian ryegrass; experiment: Test E Italian ryegrass; format: in vivo, Lolium multiflorum; conditions: Preemergence; for I. Ryegrass plant response rating (0 to 100 scale): Rate 250 g/ha
[7] = tested on: wild oat; experiment: Test E wild oat; format: in vivo, Avena fatua; conditions: Preemergence; for Wild oat plant response rating (0 to 100 scale): Rate 250 g/ha
[8] = tested on: wheat; experiment: Test B pre/postemergence wheat; format: in vivo, Triticum aestivum
Procedure, shortened: as §1

[9] = tested on: blackgrass; experiment: Test E blackgrass; format: in vivo, Alopecurus myosuroides; conditions: Preemergence; for Blackgrass plant response rating (0 to 100 scale): Rate 250 g/ha
[10] = tested on: crabgrass; experiment: Test B pre/postemergence crabgrass; format: in vivo, Digitaria sanguinalis
Procedure, shortened: as §1

[11] = tested on: winter barley; experiment: Test E winter barley; format: in vivo, Hordeum vulgare; conditions: Preemergence; for Barley (winter) plant response rating (0 to 100 scale): Rate 250 g/ha
[12] = Rate 125 g/ha, 0 to 100 scale (0 no effect, 100 complete control)
[13] = Rate 500 g/ha, 0 to 100 scale where 0 is no effect and 100 is complete control
[14] = Preemergence, Rate 62 g/ha, scale of 0 to 10 where 0 is no effect and 10 is complete control
[15] = Preemergence, Rate 250 g/ha, scale of 0 to 10 where 0 is no effect and 10 is complete control
[16] = Preemergence, Rate 500 g/ha, scale of 0 to 10 where 0 is no effect and 10 is complete control
[17] = Rate 62 g/ha, Postemergence, scale of 0 to 10 where 0 is no effect and 10 is complete control
[18] = Rate 125 g/ha, Postemergence, scale 0 to 10
[19] = Rate 125 g/ha, Preemergence, scale of 0 to 10 where 0 is no effect and 10 is complete control
[20] = Rate 500 g/ha, Postemergence, scale 0 to 10
[21] = Rate 125 g/ha, 0 to 100 scale, 0 is no effect, 100 is complete control
[22] = 0 to 100 scale where 0 is no effect and 100 is complete control
[23] = Rate 500 g/ha, 0 to 100 scale, 0 is no effect, 100 is complete control
[24] = Rate 500 g/ha, Postemergence, scale 0 to 10, 0 no effect, 10 complete control
[25] = Rate 500 g/ha, 0 to 100 scale (0 no effect, 100 complete control)
[26] = Rate 1000 g/ha, 0 to 100 scale, 0 no effect, 100 complete control
[27] = Rate 62 g/ha, Postemergence, scale 0 to 10 (0 no effect, 10 complete control)
[28] = Rate 125 g/ha, Postemergence, scale of 0 to 10 where 0 is no effect and 10 is complete control
[29] = Rate 250 g/ha, Postemergence, scale of 0 to 10 where 0 is no effect and 10 is complete control

## CC(C)N(C(=O)n1oc(=O)n(CCC(F)=C(F)F)c1=O)c1ccc(F)cc1 [Compound 218]
[1]; [12]
  Plant response rating, Wheat (winter): 50
[1]
  Wheat (winter) plant response rating (0 to 100 scale): 40
[1]; [13]
  Plant response rating, Wheat (winter): 50
[2]; [14]
  Cocklebur plant response rating: 0
[2]; [15]
  Cocklebur plant response rating: 0
[2]; [16]
  Plant response rating, Cocklebur: 0
[2]; [17]
  Cocklebur plant response rating: 0
[2]; [18]
  Cocklebur plant response rating: 0
[2]; [19]
  Cocklebur plant response rating: 0
[2]; Rate 250 g/ha, Postemergence
  Plant response rating (0 to 10; 0 is no effect, 10 is complete control), Cocklebur: 3
[2]; [20]
  Cocklebur plant response rating: 4
[3]; [12]
  Plant response rating, Green foxtail: 30
[3]
  Green foxtail plant response rating (0 to 100 scale): 55
[3]; [13]
  Plant response rating, Green foxtail: 85
[4]; [14]
  Wild oats plant response rating: 5
[4]; [15]
  Wild oats plant response rating: 7
[4]; [16]
  Plant response rating, Wild oats: 9
[4]; [17]
  Wild oats plant response rating: 0
[4]; [18]
  Wild oats plant response rating: 0
[4]; [19]
  Wild oats plant response rating: 6
[4]; Rate 250 g/ha, Postemergence
  Plant response rating (0 to 10; 0 is no effect, 10 is complete control), Wild oats: 1
[5]; [21]
  Plant response rating, Wheat (winter): 65
[5]; [22]
  Wheat (winter) plant response rating: 70
[5]; [23]
  Plant response rating, Wheat (winter): 85
[6]; [12]
  Plant response rating, I. Ryegrass: 55
[6]
  I. Ryegrass plant response rating (0 to 100 scale): 60
[6]; [13]
  Plant response rating, I. Ryegrass: 70
[7]; [12]
  Plant response rating, Wild oat: 70
[7]
  Wild oat plant response rating (0 to 100 scale): 65
[7]; [13]
  Plant response rating, Wild oat: 70
[8]; [14]
  Wheat plant response rating: 0
[8]; [15]
  Wheat plant response rating: 0
[8]; [16]
  Plant response rating, Wheat: 3
[8]; [17]
  Wheat plant response rating: 0
[8]; [18]
  Wheat plant response rating: 0
[8]; [19]
  Wheat plant response rating: 0
[8]; Rate 250 g/ha, Postemergence
  Plant response rating (0 to 10; 0 is no effect, 10 is complete control), Wheat: 0
[9]; [12]
  Plant response rating, Blackgrass: 65
[9]
  Blackgrass plant response rating (0 to 100 scale): 70
[9]; [13]
  Plant response rating, Blackgrass: 100
[10]; [14]
  Crabgrass plant response rating: 4
[10]; [15]
  Crabgrass plant response rating: 6
[10]; [16]
  Plant response rating, Crabgrass: 7
[10]; [17]
  Crabgrass plant response rating: 1
[10]; [18]
  Crabgrass plant response rating: 4
[10]; [19]
  Crabgrass plant response rating: 4
[10]; Rate 250 g/ha, Postemergence
  Plant response rating (0 to 10; 0 is no effect, 10 is complete control), Crabgrass: 5
[10]; [20]
  Crabgrass plant response rating: 9
[11]; [12]
  Plant response rating, Barley (winter): 40
[11]
  Barley (winter) plant response rating (0 to 100 scale): 50
[11]; [13]
  Plant response rating, Barley (winter): 65

## CC(C)N(C(=O)n1oc(=O)n(C2CC2)c1=O)c1ccc(Cl)cc1 [Compound 241]
[1]; [12]
  Plant response rating, Wheat (winter): 40
[1]
  Wheat (winter) plant response rating (0 to 100 scale): 50
[1]; [13]
  Plant response rating, Wheat (winter): 60
[2]; [14]
  Cocklebur plant response rating: 0
[2]; [15]
  Cocklebur plant response rating: 0
[2]; [16]
  Plant response rating, Cocklebur: 0
[2]; [17]
  Cocklebur plant response rating: 0
[2]; [18]
  Cocklebur plant response rating: 0
[2]; [19]
  Cocklebur plant response rating: 0
[2]; Rate 250 g/ha, Postemergence
  Plant response rating (0 to 10; 0 is no effect, 10 is complete control), Cocklebur: 1
[2]; [24]
  Cocklebur plant response rating: 1
[3]; [12]
  Plant response rating, Green foxtail: 65
[3]
  Green foxtail plant response rating (0 to 100 scale): 90
[3]; [13]
  Plant response rating, Green foxtail: 90
[4]; [14]
  Wild oats plant response rating: 3
[4]; [15]
  Wild oats plant response rating: 8
[4]; [16]
  Plant response rating, Wild oats: 8
[4]; [17]
  Wild oats plant response rating: 0
[4]; [19]
  Wild oats plant response rating: 5
[4]; [24]
  Wild oats plant response rating: 2
[5]; [21]
  Plant response rating, Wheat (winter): 20
[5]; [22]
  Wheat (winter) plant response rating: 60
[5]; [23]
  Plant response rating, Wheat (winter): 50
[6]; [12]
  Plant response rating, I. Ryegrass: 60
[6]
  I. Ryegrass plant response rating (0 to 100 scale): 70
[6]; [13]
  Plant response rating, I. Ryegrass: 100
[7]; [12]
  Plant response rating, Wild oat: 50
[7]
  Wild oat plant response rating (0 to 100 scale): 60
[7]; [13]
  Plant response rating, Wild oat: 55
[8]; [14]
  Wheat plant response rating: 0
[8]; [15]
  Wheat plant response rating: 3
[8]; [16]
  Plant response rating, Wheat: 5
[8]; [17]
  Wheat plant response rating: 0
[8]; [19]
  Wheat plant response rating: 0
[8]; [24]
  Wheat plant response rating: 8
[9]; [12]
  Plant response rating, Blackgrass: 60
[9]
  Blackgrass plant response rating (0 to 100 scale): 100
[9]; [13]
  Plant response rating, Blackgrass: 98
[10]; [14]
  Crabgrass plant response rating: 3
[10]; [15]
  Crabgrass plant response rating: 10
[10]; [16]
  Plant response rating, Crabgrass: 10
[10]; [17]
  Crabgrass plant response rating: 2
[10]; [19]
  Crabgrass plant response rating: 7
[10]; Rate 250 g/ha, Postemergence
  Plant response rating (0 to 10; 0 is no effect, 10 is complete control), Crabgrass: 8
[10]; [24]
  Crabgrass plant response rating: 9
[11]; [12]
  Plant response rating, Barley (winter): 40
[11]
  Barley (winter) plant response rating (0 to 100 scale): 50
[11]; [13]
  Plant response rating, Barley (winter): 60

## CC(C)N(C(=O)n1oc(=O)n(C2CCCC2)c1=O)c1ccc(F)cc1F [Compound 284]
[1]
  Wheat (winter) plant response rating (0 to 100 scale): 70
[1]; [25]
  Plant response rating, Wheat (winter): 70
[1]; [26]
  Plant response rating, Wheat (winter): 80
[2]; [14]
  Cocklebur plant response rating: 0
[2]; [16]
  Plant response rating, Cocklebur: 0
[2]; [27]
  Cocklebur plant response rating: 0
[2]; [28]
  Cocklebur plant response rating: 2
[2]; [29]
  Plant response rating, Cocklebur: 2
[2]; [24]
  Cocklebur plant response rating: 2
[3]
  Green foxtail plant response rating (0 to 100 scale): 100
[3]; [25]
  Plant response rating, Green foxtail: 100
[3]; [26]
  Plant response rating, Green foxtail: 100
[4]; [14]
  Wild oats plant response rating: 0
[4]; [15]
  Wild oats plant response rating: 3
[4]; [16]
  Plant response rating, Wild oats: 5
[4]; [27]
  Wild oats plant response rating: 0
[4]; [28]
  Wild oats plant response rating: 0
[4]; [29]
  Plant response rating, Wild oats: 0
[5]; Rate 1000 g/ha, 0 to 100 scale where 0 is no effect and 100 is complete control
  Plant response rating, Wheat (winter): 85
[5]; [22]
  Wheat (winter) plant response rating: 60
[5]; [23]
  Plant response rating, Wheat (winter): 20
[6]
  I. Ryegrass plant response rating (0 to 100 scale): 85
[6]; [25]
  Plant response rating, I. Ryegrass: 70
[6]; [26]
  Plant response rating, I. Ryegrass: 85
[7]
  Wild oat plant response rating (0 to 100 scale): 70
[7]; [25]
  Plant response rating, Wild oat: 60
[7]; [26]
  Plant response rating, Wild oat: 70
[8]; [14]
  Wheat plant response rating: 0
[8]; [15]
  Wheat plant response rating: 0
[8]; [16]
  Plant response rating, Wheat: 0
[8]; [27]
  Wheat plant response rating: 0
[8]; [28]
  Wheat plant response rating: 0
[8]; [19]
  Wheat plant response rating: 0
[8]; [29]
  Plant response rating, Wheat: 0
[9]
  Blackgrass plant response rating (0 to 100 scale): 65
[9]; [26]
  Plant response rating, Blackgrass: 70
[10]; [14]
  Crabgrass plant response rating: 4
[10]; [15]
  Crabgrass plant response rating: 8
[10]; [16]
  Plant response rating, Crabgrass: 9
[10]; [27]
  Crabgrass plant response rating: 0
[10]; [28]
  Crabgrass plant response rating: 1
[10]; [19]
  Crabgrass plant response rating: 4
[10]; [29]
  Plant response rating, Crabgrass: 1
[11]
  Barley (winter) plant response rating (0 to 100 scale): 50
[11]; [25]
  Plant response rating, Barley (winter): 30
[11]; [26]
  Plant response rating, Barley (winter): 60
